Results as given in ChEMBL document CHEMBL1201862, “PubChem BioAssay data set” (2004).
The source made the active and inactive calls.

Assays:
[1] = tested on: Streptococcus sp. 'group A'; test: Streptococcus pyogenes SK(-)GAS viability under kanamycin – luminescence, BacTiterGlo, confirmation, counter-screen for streptokinase expression inhibitor project, dose response (AID 1900); type: functional, organism-based
[2] = target: T1, Streptokinase A (Streptococcus pyogenes serotype M1, UniProt P10520); test: viability-normalized secreted streptokinase activity reduction – plasminogen activation absorbance, OD405, dose response (AID 1914); type: functional, Streptococcus pyogenes M1 GAS;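 also: secreted streptokinase activity via plasminogen activation per viability signal from cell pellet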
T1 sequence (P10520 whole entry): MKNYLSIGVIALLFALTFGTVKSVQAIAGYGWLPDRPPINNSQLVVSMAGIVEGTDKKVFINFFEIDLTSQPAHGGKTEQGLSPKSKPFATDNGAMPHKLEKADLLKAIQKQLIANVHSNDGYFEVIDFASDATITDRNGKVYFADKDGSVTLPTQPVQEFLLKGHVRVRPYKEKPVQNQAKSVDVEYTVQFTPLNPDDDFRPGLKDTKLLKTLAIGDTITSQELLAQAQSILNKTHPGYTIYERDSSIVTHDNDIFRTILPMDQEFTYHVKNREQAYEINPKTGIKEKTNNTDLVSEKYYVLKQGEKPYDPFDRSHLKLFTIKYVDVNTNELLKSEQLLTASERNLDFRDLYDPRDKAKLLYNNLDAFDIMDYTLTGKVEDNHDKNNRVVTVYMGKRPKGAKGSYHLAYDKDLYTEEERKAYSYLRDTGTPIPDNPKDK

[3] = tested on: Streptococcus; test: GAS UMAA2166 growth inhibition – luminescence, BacTiterGlo, counter-screen for streptokinase expression inhibitor project, dose response (AID 1915); type: functional, organism-based;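 also: potency for reduction of bacterial viability or growth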
[4] = target: Cytochrome P450 2C19 (Homo sapiens, UniProt P33261); test: Cytochrome panel assay with activity outcomes. Panel member name: p450-cyp2c19 Compounds with AC50 equal or less than 10 uM are considered active; type: functional
[5] = target: Cytochrome P450 2C9 (Homo sapiens, UniProt P11712)
[6] = target: T2, Heat shock factor protein 1 (Mus musculus, UniProt P38532); test: enhancement of HSF1-driven luciferase signal – cell-based, NIH3T3, luminescence, dose retest, confirmation (AID 435004); type: functional;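 also: stress induced by proteasome inhibitor MG132 added 30 min after compound; luciferase reporter driven by HSF1 response element in NIH3T3 cells; actives raise luminescence as potentiators of the MG132 stress response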
T2 sequence (P38532 whole entry): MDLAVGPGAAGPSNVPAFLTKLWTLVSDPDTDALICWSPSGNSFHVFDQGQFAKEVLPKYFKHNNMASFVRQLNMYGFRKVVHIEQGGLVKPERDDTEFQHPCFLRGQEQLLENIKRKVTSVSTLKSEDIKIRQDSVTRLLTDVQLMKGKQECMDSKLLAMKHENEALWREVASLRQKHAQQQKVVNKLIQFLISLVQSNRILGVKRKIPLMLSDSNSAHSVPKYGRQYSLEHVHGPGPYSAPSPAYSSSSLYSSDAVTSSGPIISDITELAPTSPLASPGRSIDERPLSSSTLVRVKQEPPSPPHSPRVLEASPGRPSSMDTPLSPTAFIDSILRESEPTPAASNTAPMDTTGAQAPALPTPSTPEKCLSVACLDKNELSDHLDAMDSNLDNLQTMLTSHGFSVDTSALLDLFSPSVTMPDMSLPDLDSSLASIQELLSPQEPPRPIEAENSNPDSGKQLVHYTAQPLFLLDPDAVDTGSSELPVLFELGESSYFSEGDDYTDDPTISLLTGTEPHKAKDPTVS

[7] = tested on: H4; test: Luminescence Cell-Based Dose Response HTS to Identify Activators of 5'UTR Stem-Loop Driven Prion Protein mRNA Translation in H4 Neuroglioblastoma Cells. [Related pubchem assays: 1829 (Project Summary), 1814 (Primary HTS)]; type: functional; conditions: Homo sapiens
[8] = Luminescence Cell-Based Dose Retest to Confirm Inhibitors of Cancer Stem Cells. [Related pubchem assays (depositor defined):AID2717, AID2721]; type: functional; conditions: Homo sapiens
[9] = NIH-3T3 fibroblast cytotoxicity, dose response, cytotoxicity control, cell-based, fluorescence, Alamar Blue, secondary assay (AID 2327); type: functional;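 also: NIH-3T3 mouse fibroblasts cultured with fluconazole at 8 µg/mL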
[10] = fluconazole-exposed Candida albicans growth modulators – fluorescence, retest, confirmation (AID 2467); type: functional, cell-based
[11] = viability of uninfected HEp-2 cells – cell-based, HTS, cytotoxicity control for RSV inhibitor project, dose response (AID 2410); type: functional; conditions: human respiratory syncytial virus
[12] = Luminescence Cell-Based Dose Response HTS to Identify Inhibitors of 5'UTR Stem-Loop Driven Prion Protein mRNA Translation in H4 Neuroglioblastoma Cells. [Related pubchem assays: 1827 (Project Summary), 1813 (Primary HTS)]; type: functional
[13] = alpha-synuclein stem-loop luciferase translation blockers – H4 neuroglioma cells, luminescence, confirmation (AID 1988); type: functional, cell-based
[14] = Luminescence Cell-Based Dose Response HTS to Identify Activators of Luciferase Translation or Activity in H4 […] Cells. [Related pubchem assays: 1829 (Project Summary), 1814 (Primary HTS)]; type: functional

Sequence of Cytochrome P450 2C9 (P11712 whole entry): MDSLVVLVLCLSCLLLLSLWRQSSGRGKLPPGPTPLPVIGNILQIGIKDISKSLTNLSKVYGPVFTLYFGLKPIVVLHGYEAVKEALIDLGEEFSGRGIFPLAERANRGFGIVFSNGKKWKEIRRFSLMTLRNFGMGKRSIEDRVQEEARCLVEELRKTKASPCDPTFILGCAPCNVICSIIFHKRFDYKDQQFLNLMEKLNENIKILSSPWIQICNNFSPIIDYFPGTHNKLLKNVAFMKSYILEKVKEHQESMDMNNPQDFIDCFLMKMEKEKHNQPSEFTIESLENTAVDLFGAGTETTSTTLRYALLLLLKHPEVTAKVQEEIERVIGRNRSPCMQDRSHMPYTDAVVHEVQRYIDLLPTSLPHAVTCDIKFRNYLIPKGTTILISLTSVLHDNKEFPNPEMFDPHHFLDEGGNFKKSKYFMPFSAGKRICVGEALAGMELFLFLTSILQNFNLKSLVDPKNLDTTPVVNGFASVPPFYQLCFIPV
Sequence of Cytochrome P450 2C19 (P33261 whole entry): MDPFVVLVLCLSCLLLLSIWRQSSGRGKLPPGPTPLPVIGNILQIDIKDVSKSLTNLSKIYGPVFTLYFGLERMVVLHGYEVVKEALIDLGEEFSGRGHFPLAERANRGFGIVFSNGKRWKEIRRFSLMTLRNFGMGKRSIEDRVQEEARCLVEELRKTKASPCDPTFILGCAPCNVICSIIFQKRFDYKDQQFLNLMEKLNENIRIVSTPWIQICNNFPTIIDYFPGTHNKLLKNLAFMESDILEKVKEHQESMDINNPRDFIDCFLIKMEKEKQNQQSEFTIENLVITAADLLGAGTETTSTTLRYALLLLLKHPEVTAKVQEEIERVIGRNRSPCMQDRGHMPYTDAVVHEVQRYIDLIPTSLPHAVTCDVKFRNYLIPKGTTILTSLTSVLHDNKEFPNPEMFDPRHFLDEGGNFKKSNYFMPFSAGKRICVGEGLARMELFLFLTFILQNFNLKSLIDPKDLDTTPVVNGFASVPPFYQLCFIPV

O=C(CNC(=O)c1ccco1)NCc1nc2ccccc2[nH]1
EC50 [1]: > 150 µM (not active) | EC50 [2]: > 150 µM (not active) | EC50 [3]: > 150 µM (not active)

CCOc1ccc(C(C)=O)cc1N1C(=O)C2C(C1=O)C1C=CC2C12CC2 (stereo not drawn)
AC50 ([4]; read-out: AC50): 17.8 µM (inconclusive) | AC50 [5]: 14.1 µM (inconclusive)

CCOc1nc(NCCc2ccc(OC)c(OC)c2)nc(NC(C)(C)CO)n1
AC50 [5]: 31.6 µM (inconclusive)

C[N+]1(C)C[C@@H](O)C[C@@H]1C(=O)[O-] [BETONICINE]
AC50 [4]: inconclusive

COc1ccc(CNS(=O)(=O)c2cc(CN3C(=O)c4cccnc4C3=O)ccc2OC)cc1
EC50 [6]: > 260 µM (inactive)

CC[C@H](C)/C=C(C)/C=C/C(=O)Cc1cc(O)c(C)c(O)c1C=O
EC50 [6]: 27.5 µM (active)

COC(=O)[C@@H]1CC[C@H](C)[C@@H](c2ccc(C)cc2)N1C(=O)c1ccc(/C=N\OCC[C@@H]2C=C[C@H](OC(C)=O)[C@H](COC(C)=O)O2)cc1
AC50 [5]: 3.98 µM (inconclusive)

CC(C)c1ccc(/C=N/NC(=O)c2cccc(Cl)c2)cc1
EC50 [7]: 43.1 µM (active) | AC50 [8]: 2.88 µM (active)

O=C(COC(=O)c1cn(-c2ccccc2)nc1-c1ccccc1)c1ccc([N+](=O)[O-])cc1
EC50 [6]: > 260 µM (inactive)

CCOC(=O)N1CCN(S(=O)(=O)c2cc(Cl)c(OC)cc2Cl)CC1
EC50 [6]: > 260 µM (inactive)

CCS(=O)(=O)Nc1ccc2[nH]c(O)nc2c1
EC50 [6]: > 260 µM (inactive)

O=C(N/N=C/c1cc([N+](=O)[O-])ccc1O)C(O)(c1ccccc1)c1ccccc1
EC50 [9]: > 150 µM (inactive) | EC50 [1]: 3.11 µM (active) | EC50 [2]: > 150 µM (not active) | EC50 [10]: 2.29 µM (active) | EC50 [3]: 9.11 µM (active)

CC(=O)[C@@]1(O)CC[C@H]2[C@H]3C[C@@H](C)C4=CC(=O)C=C[C@]4(C)[C@@]3(F)[C@@H](O)C[C@]21C
AC50 [5]: 12.6 µM (inconclusive)

O=C(/C=C/c1ccccc1)NC(=S)NNC(=O)Cc1cccs1
EC50 [1]: 1.39 µM (active) | EC50 [2]: > 150 µM (not active) | EC50 [3]: 30.3 µM (active)

COc1ccc2[nH]cc(CCNc3ncnc4ccc(-c5ccoc5)cc34)c2c1
AC50 [5]: 0.398 µM (inconclusive)

COc1cccc(C(=O)c2c(C)c(CCC#N)n3ccccc23)c1OC
EC50 [6]: > 260 µM (inactive)

O=C(Nc1cccnc1)C1COc2ccccc2O1 (stereo not drawn)
AC50 [5]: 5.01 µM (inconclusive)

CC1CCC(C(=O)c2c(O)oc3ccccc3c2=O)CC1 (stereo not drawn)
EC50 [9]: > 150 µM (inactive) | EC50 [1]: 10.4 µM (active) | EC50 [2]: > 150 µM (not active) | EC50 [10]: 2.01 µM (active) | EC50 [3]: 20.3 µM (active)

CCc1nn(C(C)C(=O)NC(C)CCc2ccco2)c(=O)c2cc3occc3n12 (stereo not drawn)
CC50 [11]: > 50 µM (active) | EC50 [6]: > 260 µM (inactive)

Cn1ncc(Br)c1C(=O)N1CCOCC1
EC50 [6]: > 260 µM (inactive)

Cn1c(-c2ccc(F)cc2)cnc1NCc1cccc(F)c1
AC50 [5]: 39.8 µM (inconclusive)

CC(NC(=O)Cn1c(=O)[nH]c2ccsc2c1=O)C12CC3CC(CC(C3)C1)C2 (stereo not drawn)
EC50 [1]: > 150 µM (not active) | EC50 [2]: > 150 µM (not active) | EC50 [3]: > 150 µM (not active)

Cc1cccc2cc(CN(Cc3ccco3)C(c3nnnn3CCc3ccccc3)C(C)C)c(O)nc12 (stereo not drawn)
EC50 [6]: 70.3 µM (active)

COCCn1nc2cc(C(=O)NCc3cc(C(F)(F)F)cc(C(F)(F)F)c3)ccc2c1OC
AC50 ([4]; read-out: AC50): 3.16 µM (inconclusive)

O=c1c2ccccc2nc(SCc2cn3ccsc3n2)n1-c1ccccc1
EC50 [6]: > 260 µM (inactive)

c1ccc(Nc2nc(N3CCCCC3)nc(N3CCCCC3)n2)cc1
EC50 [1]: 11.7 µM (active) | EC50 [2]: > 150 µM (not active) | EC50 [3]: 33.9 µM (active)

CC(C)SC1=NC(/C=C/c2ccc(Cl)cc2Cl)=CC(C)(C)N1
EC50 [6]: 38.9 µM (active)

CN(C)C(=O)c1ccc(-c2ccc3ncnc(N(C)C)c3c2)cc1
AC50 [5]: 1.26 µM (inconclusive)

O=C(O)[C@H]1[C@H]2c3ccccc3[C@H](c3ccccc32)[C@@H]1C(=O)NCC1CC1
AC50 ([4]; read-out: AC50): 3.98 µM (inconclusive)

Cn1c(-c2ccc(Br)cc2)cnc1NCc1cccnc1
AC50 ([4]; read-out: AC50): 17.8 µM (inconclusive) | AC50 [5]: 15.8 µM (inconclusive)

COc1ccc(/C=C2\SC(=S)N(CCC(=O)NC3C=CS(=O)(=O)C3)C2=O)cc1 (stereo not drawn)
EC50 [12]: 15.7 µM (active) | EC50 [13]: 13.4 µM (active)

CC(C)(C)OC(=O)COc1cc(OCC(=O)OC(C)(C)C)c2c(=O)cc(-c3ccccc3)oc2c1
CC50 [11]: 19.6 µM (active) | AC50 [5]: 2 µM (inconclusive)

Cc1ccc(NC(=O)COC(=O)/C=C/c2ccc(Br)o2)cc1S(=O)(=O)N(C)C
EC50 [6]: > 260 µM (inactive)

O=C(Nc1ccc([N+](=O)[O-])cc1)C1C(c2ccccc2)=C1c1ccccc1
EC50 [6]: > 260 µM (inactive)

Cc1ccc(-n2c3c(c(=O)[nH]c2=O)C(C(F)(F)F)(C(F)(F)F)NC(=O)N3)cc1
AC50 ([4]; read-out: AC50): 39.8 µM (inconclusive) | AC50 [5]: 20 µM (inconclusive)

Cc1c(C(=O)NCCN(C)C)oc2ccc(S(=O)(=O)N3CCCC3)cc12
EC50 [6]: > 260 µM (inactive)

CC(=O)OCc1c(C(F)(F)F)nn(C)c1Sc1ccccc1
AC50 [5]: 28.2 µM (inconclusive)

CC(=O)Nc1nnc(S(=O)(=O)N2CCN(c3ccc(Cl)cc3[N+](=O)[O-])CC2)s1
EC50 [1]: 29.1 µM (active) | EC50 [2]: > 150 µM (not active) | EC50 [3]: > 150 µM (not active)

c1cn2c(NC3CCCCC3)c(-c3ccc(SC4CCCCC4)cc3)nc2cn1
EC50 [1]: 1.01 µM (active) | EC50 [2]: > 150 µM (not active) | EC50 [3]: 4.27 µM (active) | AC50 [8]: 3.13 µM (active)

COc1cc(/C=C/C(=O)N2CCOCC2)ccc1OCc1ccccc1
EC50 [6]: > 260 µM (inactive)

CC(/C=C/c1ccc(N(C)C)cc1)=N/NC1=NC(=O)CC(C(=O)Nc2ccc(Cl)cc2)S1 (stereo not drawn)
EC50 [1]: 2.94 µM (active) | EC50 [2]: > 150 µM (not active) | EC50 [3]: 8.65 µM (active)

COc1ccc(CN2CC(C(=O)NCCCN3CCOCC3)CC2=O)cc1 (stereo not drawn)
EC50 [6]: > 260 µM (inactive)

Cc1ccc(S(=O)(=O)NCC(=O)OCC(=O)N2N=C(c3ccc(Cl)cc3)CC2c2ccco2)cc1C (stereo not drawn)
EC50 [1]: 18.6 µM (active) | EC50 [2]: 22.4 µM (active) | EC50 [3]: 61 µM (active)

O=C(COc1cccc2cccnc12)Nc1ccccc1
EC50 [14]: 15.4 µM (active) | EC50 [7]: 15 µM (active)

O=C(Nc1cccc(F)c1)N1CCC2(CC1)CCN(C(=O)Oc1ccccc1)CC2
AC50 [5]: 39.8 µM (inconclusive)
